Data on 13 compounds can be found in ChEMBL document CHEMBL5625161, “Pharmacological activity and mechanism of pyrazines” (Eur J Med Chem, 2023).

≈ marks a conversion by molar mass, not a printed value.

For one data set, the system named is Caco-2. Nature of the data set: Growth inhibition of human Caco-2 cells measured after 48 hrs by SRB assay. The data set is classed as functional. A general note: The SRB assay estimates cell density from bound dye.
Data set [1] concerns MCF7. Briefly: Growth inhibition of human MCF7 cells measured after 48 hrs by SRB assay. The data set is classed as functional.
In another data set the test system is NCI-H460. Nature of the data set: Growth inhibition of human NCI-H460 cells measured after 48 hrs by SRB assay. Type of data set: functional.
Data set [2] in a line: Cytotoxicity against African green monkey Vero cells incubated for 48 hrs by SRB colorimetric assay. The data set is classed as toxicity, cell-based, Chlorocebus sabaeus.
Data set [3] concerns MCF7. Briefly: Antiproliferative activity against human MCF7 cells assessed as reduction in cell viability incubated for 48 hrs by MTT assay. The data set is classed as functional, cell-based. The conditions noted are these: MCF7, 48 h.
For the next data set, the target named is Histone deacetylase 1 (Homo sapiens, UniProt Q13547). Briefly: Inhibition of human recombinant HDAC1.
Chain of Histone deacetylase 1 (Q13547 whole entry): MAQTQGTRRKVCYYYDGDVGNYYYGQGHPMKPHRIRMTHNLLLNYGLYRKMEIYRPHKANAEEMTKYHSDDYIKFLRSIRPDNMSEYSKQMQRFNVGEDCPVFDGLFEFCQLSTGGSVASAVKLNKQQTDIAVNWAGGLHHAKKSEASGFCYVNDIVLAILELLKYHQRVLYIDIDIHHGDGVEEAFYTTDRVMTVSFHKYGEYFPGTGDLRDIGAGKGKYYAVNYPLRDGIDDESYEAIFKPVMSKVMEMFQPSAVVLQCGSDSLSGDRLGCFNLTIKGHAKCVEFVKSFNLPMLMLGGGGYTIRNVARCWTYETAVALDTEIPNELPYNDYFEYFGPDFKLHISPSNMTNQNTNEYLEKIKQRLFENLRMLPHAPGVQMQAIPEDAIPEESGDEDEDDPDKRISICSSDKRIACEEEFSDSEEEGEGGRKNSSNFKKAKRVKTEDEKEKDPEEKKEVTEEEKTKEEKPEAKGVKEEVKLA
For the next data set, the target named is Histone deacetylase 2 (Homo sapiens, UniProt Q92769). Nature of the data set: Inhibition of human recombinant HDAC2.
Chain of Histone deacetylase 2 (Q92769 whole entry): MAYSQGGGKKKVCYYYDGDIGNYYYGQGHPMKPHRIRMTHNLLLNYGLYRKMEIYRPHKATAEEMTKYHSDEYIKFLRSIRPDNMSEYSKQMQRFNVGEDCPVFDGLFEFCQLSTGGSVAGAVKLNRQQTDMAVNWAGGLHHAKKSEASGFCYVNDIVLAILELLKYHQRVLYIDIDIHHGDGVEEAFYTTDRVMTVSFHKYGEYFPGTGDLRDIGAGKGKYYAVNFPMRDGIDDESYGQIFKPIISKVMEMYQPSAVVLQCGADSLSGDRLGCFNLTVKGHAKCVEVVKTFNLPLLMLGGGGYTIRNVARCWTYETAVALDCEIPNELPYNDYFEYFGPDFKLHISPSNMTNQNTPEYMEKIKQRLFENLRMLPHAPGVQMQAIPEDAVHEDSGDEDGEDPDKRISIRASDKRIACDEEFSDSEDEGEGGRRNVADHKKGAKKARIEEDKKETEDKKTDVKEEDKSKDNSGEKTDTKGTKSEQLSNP
The target of the next data set is Histone deacetylase 3 (Homo sapiens, UniProt O15379). Nature of the data set: Inhibition of human recombinant HDAC3.
Chain of Histone deacetylase 3 (O15379 whole entry, the tested form may be a part): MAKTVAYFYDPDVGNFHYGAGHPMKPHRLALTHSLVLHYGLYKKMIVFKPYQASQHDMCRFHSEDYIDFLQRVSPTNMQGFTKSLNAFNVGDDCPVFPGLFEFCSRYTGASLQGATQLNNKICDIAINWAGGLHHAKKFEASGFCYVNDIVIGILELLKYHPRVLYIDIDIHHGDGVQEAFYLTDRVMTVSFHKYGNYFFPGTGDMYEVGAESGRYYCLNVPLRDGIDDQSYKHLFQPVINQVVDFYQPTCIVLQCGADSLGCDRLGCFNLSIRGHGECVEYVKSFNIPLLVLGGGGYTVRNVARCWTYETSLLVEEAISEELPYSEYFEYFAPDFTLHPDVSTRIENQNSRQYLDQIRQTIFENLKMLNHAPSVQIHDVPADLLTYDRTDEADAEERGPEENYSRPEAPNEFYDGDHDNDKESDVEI
For data set [4], the target named is Fibroblast growth factor receptor 1 (Homo sapiens, UniProt P11362). Briefly: Inhibition of human recombinant FGFR1 (461 to 768 residues) expressed in Escherichia coli BL21 Gold(DE3) cells by spectrophotometer method.
Chain of Fibroblast growth factor receptor 1 (P11362 whole entry, the tested form may be a part): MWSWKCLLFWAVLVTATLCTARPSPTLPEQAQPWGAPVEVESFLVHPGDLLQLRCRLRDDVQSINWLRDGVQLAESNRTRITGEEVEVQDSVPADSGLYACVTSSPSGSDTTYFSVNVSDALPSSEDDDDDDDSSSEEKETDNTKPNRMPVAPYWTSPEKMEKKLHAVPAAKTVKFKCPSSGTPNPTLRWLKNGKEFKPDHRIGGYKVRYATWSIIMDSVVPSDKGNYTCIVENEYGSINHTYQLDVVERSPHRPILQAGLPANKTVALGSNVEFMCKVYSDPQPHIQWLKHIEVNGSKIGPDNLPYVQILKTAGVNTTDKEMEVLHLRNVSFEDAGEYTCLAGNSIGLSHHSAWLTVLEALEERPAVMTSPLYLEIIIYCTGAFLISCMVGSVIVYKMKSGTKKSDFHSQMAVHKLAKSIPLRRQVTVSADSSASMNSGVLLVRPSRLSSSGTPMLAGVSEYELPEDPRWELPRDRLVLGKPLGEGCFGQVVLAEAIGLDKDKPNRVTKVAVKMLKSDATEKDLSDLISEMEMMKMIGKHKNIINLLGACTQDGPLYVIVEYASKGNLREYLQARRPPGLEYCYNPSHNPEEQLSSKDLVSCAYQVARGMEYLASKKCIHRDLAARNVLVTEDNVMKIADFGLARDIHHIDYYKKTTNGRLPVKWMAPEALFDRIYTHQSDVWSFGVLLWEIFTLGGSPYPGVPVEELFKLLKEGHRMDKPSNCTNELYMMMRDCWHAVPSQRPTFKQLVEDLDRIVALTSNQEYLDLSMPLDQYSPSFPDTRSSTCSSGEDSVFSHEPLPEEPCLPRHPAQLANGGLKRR
The subject of another data set is KG-1. Nature of the data set: Antiproliferative activity against FGFR1-translocated human KG-1 cells assessed as reduction in cell viability incubated for 72 hrs by CCK-8 assay. The data set is classed as functional, cell-based. The following applies: KG-1, 72 h.
Data set [5] deals with Amine oxidase [flavin-containing] B (Homo sapiens, UniProt P27338). Briefly: Inhibition of human recombinant MAO-B expressed in insect cells incubated for 15 mins by Amplex red and horseradish peroxidase based fluorescence assay. Further details: species or system Insect cell.
Chain of Amine oxidase [flavin-containing] B (P27338 whole entry): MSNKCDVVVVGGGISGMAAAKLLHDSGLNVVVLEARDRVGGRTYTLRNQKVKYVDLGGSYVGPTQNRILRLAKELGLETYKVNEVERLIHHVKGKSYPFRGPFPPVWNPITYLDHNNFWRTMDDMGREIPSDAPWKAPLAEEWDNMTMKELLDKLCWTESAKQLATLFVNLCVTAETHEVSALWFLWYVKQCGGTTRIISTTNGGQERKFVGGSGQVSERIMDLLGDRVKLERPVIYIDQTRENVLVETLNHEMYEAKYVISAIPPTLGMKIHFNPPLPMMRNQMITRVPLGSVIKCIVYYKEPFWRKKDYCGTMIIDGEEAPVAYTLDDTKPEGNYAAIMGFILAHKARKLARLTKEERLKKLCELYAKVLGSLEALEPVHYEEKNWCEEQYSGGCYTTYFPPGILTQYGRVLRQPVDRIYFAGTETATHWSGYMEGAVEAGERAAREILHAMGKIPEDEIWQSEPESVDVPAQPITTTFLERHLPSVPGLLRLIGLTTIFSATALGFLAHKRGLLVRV
A further data set has as its system AGS. Nature of the data set: Growth inhibition of human AGS cells measured after 48 hrs by SRB assay. Type of data set: functional.
For the next data set, the system named is Huh-7. Nature of the data set: Antiproliferative activity against human Huh-7 cells assessed as reduction in cell viability incubated for 48 hrs by MTT assay. The conditions noted are these: Huh-7, 48 h. The data set is classed as functional, cell-based. In general terms: Tetrazolium dyes change colour on reduction, which living cells bring about.
A further data set has as its system L1210. Nature of the data set: Antiproliferative activity against mouse L1210 cells assessed as reduction in cell viability measured after 3 to 4 days by MTT assay. Type of data set: functional, cell-based.
The test system of the next data set is CCRF-CEM. Nature of the data set: Antiproliferative activity against human CEM cells assessed as reduction in cell viability measured after 3 to 4 days by MTT assay. Type of data set: functional, cell-based.
The subject of the next data set is HeLa. Nature of the data set: Antiproliferative activity against human HeLa cells assessed as reduction in cell viability measured after 3 to 4 days by MTT assay. The data set is classed as functional, cell-based.
The test system of data set [6] is A549. Nature of the data set: Antiproliferative activity against human A549 cells assessed as reduction in cell viability measured after 3 to 4 days by MTT assay. The data set is classed as functional, cell-based.
For a further data set, the system named is HepG2. Briefly: Antiproliferative activity against human HepG2 cells assessed as reduction in cell viability measured after 3 to 4 days by MTT assay. The data set is classed as functional, cell-based.
In another data set the test system is SW-620. Nature of the data set: Antiproliferative activity against human SW-620 cells assessed as reduction in cell growth measured after 3 to 4 days by MTT assay. The data set is classed as functional, cell-based.
In data set [7] the test system is MCF7. Nature of the data set: Antiproliferative activity against human MCF7 cells assessed as reduction in cell growth measured after 3 to 4 days by MTT assay. The data set is classed as functional, cell-based.
A short description of data set [8]: Antiproliferative activity against human Molt 4/C8 cells assessed as reduction in cell growth measured after 3 to 4 days by MTT assay. The data set is classed as functional, cell-based. The following applies: Molt4/C8.
Data set [9] can be described thus: Antiproliferative activity against human WI-38 cells assessed as reduction in cell growth measured after 3 to 4 days by MTT assay. Type of data set: toxicity, cell-based.
Data set [10] relates to A549. Nature of the data set: Antiproliferative activity against human A549 cells assessed as inhibition of cell growth at 10 uM relative to control. Type of data set: functional. Set-up: scale not given: the % may be the effect or the level left.
For the next data set, the system named is Rhizoctonia solani. Nature of the data set: Antifungal activity Rhizoctonia solani assessed as fungal growth inhibition measured after 4 to 8 days. The data set is classed as functional, organism-based.
The subject of the next data set is Phytophthora nicotianae. Briefly: Antifungal activity against Phytophthora nicotianae assessed a fungal growth inhibition measured after 4 to 8 days. Type of data set: functional, organism-based.
The subject of data set [11] is MCF7. Briefly: Cytotoxicity against human MCF7 cells assessed as cell growth inhibition measured after 48 hrs by MTT assay. Type of data set: functional, cell-based. The following applies: MCF7, 48 h.
Another data set concerns HCT-116. Briefly: Cytotoxicity against human HCT-116 cells assessed as cell growth inhibition measured after 48 hrs by MTT assay. The following applies: HCT-116, 48 h. Type of data set: functional, cell-based.
The subject of another data set is K562. Briefly: Cytotoxicity against human K562 cells assessed as cell growth inhibition measured after 48 hrs by MTT assay. The following applies: K562, 48 h. The data set is classed as functional, cell-based.
The subject of data set [12] is MCF7. Briefly: Cytotoxicity against human MCF7 cells assessed as reduction in cell growth incubated for 24 hrs by MTT assay. Type of data set: functional, cell-based. The conditions noted are these: MCF7, 24 h.
For another data set, the system named is HT-29. Nature of the data set: Antiproliferative activity against human HT-29 cells assessed as reduction in cell viability incubated for 72 hrs by MTT assay. Type of data set: functional, cell-based. The conditions noted are these: HT-29, 72 h.
A further data set relates to PC-9. Briefly: Antiproliferative activity against human PC-9 cells assessed as reduction in cell growth incubated for 72 hrs by MTT assay. The data set is classed as functional, cell-based. The conditions noted are these: PC-9, 72 h.
The next data set has as its system PC-9/ER. Briefly: Antiproliferative activity against human PC-9/ER cells assessed as inhibition of cell growth incubated for 48 hrs by MTT assay. The data set is classed as functional.

For the compound `COC(=O)c1sc2nccnc2c1Nc1cc(OC)cc(OC)c1`, the figures for the GI50 with Caco-2, in the data set with MCF7 [1] and in the data set on NCI-H460 were 87 µM, 41 µM and 53 µM, respectively. The compound further registered an IC50 at 48 h in [2] of 144 µM.
Regarding `COc1cnc(C(=O)NCC2(C)CCCC3(C)c4ccc(C(C)C)cc4CCC23)cn1` (centres undefined), the 50% inhibitory concentration (IC50) in the data set on MCF7 [3] amounted to 6.66 µM; on Histone deacetylase 1, 0.13 µM; on Histone deacetylase 2, 0.28 µM; on Histone deacetylase 3, 0.31 µM.
For `COc1cc(OC)c(F)c(/C=C/c2cnc3c(n2)N(S(=O)(=O)c2cn(CCF)cn2)CC3)c1F`, the IC50 is 0.6 µM in data set [4] and 0.0005 µM in the data set with KG-1.
Take `O=C(Nc1ccc2c(ccn2Cc2cccc(F)c2)c1)c1cnccn1`: the IC50 in [5] was 0.78 µM.
As for `COC(=O)c1sc2nccnc2c1Nc1ccc(OC)c(OC)c1`, the GI50 with AGS came out at 9.2 µM; in the data set with Caco-2, 8 µM. The same compound came in with a half-inhibitory concentration (IC50) at 48 h in data set [2] of 53 µM.
In the case of `N=C(NC(=O)c1nc(Cl)c(N)nc1N)NC(=O)c1c(Cl)cccc1Cl`, the half-inhibitory concentration (IC50) in the data set on Huh-7 was 12.8 µM.
As for `O=C(Nc1ccc(Br)cc1)Nc1ccc(Oc2cnc(C(=O)NC3CCCC3)cn2)cc1`, the half-inhibitory concentration (IC50) was 87 µM with L1210; greater than 250 µM with CCRF-CEM; 0.6 µM in the data set on HeLa; 0.9 µM with A549 [6]; 0.7 µM in the data set with HepG2; 39.6 µM in the data set with SW-620. The 50% inhibitory concentration (IC50) in the data set on MCF7 [7] was greater than 250 µM; in [8], greater than 250 µM; in data set [9], greater than 100 µM.
As to `Cc1cc(=O)oc2cc(Oc3nc(-c4ccc(Cl)cc4)cn4c(-c5ccc(Cl)cc5)cnc34)ccc12`, the Activity in the data set on A549 [10] is on record as 90.12%.
As to `CC(OC(=O)c1ccccc1)c1cnccn1` (centres undefined), the EC50 is 0.019 µg/mL (≈ 0.0832 µM) with Rhizoctonia solani and 0.187 µg/mL (≈ 0.819 µM) in the data set with Phytophthora nicotianae.
Turning to `c1ccc(CNc2c(-c3ccncc3)nc3cnccn23)cc1`, the concentration for half-maximal inhibition (IC50) with MCF7 [11], in the data set with HCT-116 and with K562 was 6.66 µM in each case.
`CN(C)CCNc1ccc2c3c(cccc13)-c1nc(C#N)c(C#N)nc1-2`: in the data set with MCF7 [12], the 50% inhibitory concentration (IC50) amounted to 4.6 µM.
As for `CNCc1ccc(-c2cc(-c3nc(-c4ccc(S(=O)(=O)C(C)C)cc4)cnc3N)on2)cc1` [BERZOSERTIB], the IC50 in the data set with HT-29 came to 0.019 µM.
Take `c1cc2cc(-c3cnc4nc(-c5ccc6c(c5)OCCO6)cnc4c3)ccc2[nH]1`: the half-maximal inhibitory concentration (IC50) stood at 0.09 µM with PC-9 and 0.15 µM in the data set with PC-9/ER.

Usually GI50 stands for the concentration that inhibits growth by half. The IC50 is the concentration at which inhibition is half-maximal. What is called EC50 is the concentration needed to bring the measured effect to its halfway point.
